Source: article PMC12866179, “Oxidized MIF is an Alzheimer’s disease drug target relaying external risk factors to tau pathology” (Cell Reports Medicine, 2025)

Key:
HSV-1 = HSV-1 infection of differentiated LUHMES cells (immunocytochemistry, western blot); type: cell-based, HSV-1 KOS strain; conditions: infected with HSV-1
Protocol: 4x10^5 Vero cells, 8x10^5 SH-SY5Y or 2x10^6 differentiated LUHMES (differentiation day 6) cells were seeded into 12-well plates. After 24h the cells were treated with compounds (as indicated in the figures) and after 1h they were infected with HSV-1 applying MOIs as described in the figures. After 20h (or at indicated time points) cells were either washed twice with PBS, then lysed in cold PBS/1% NP40 including the cOmplete EDTA-free protease inhibitor cocktail (Roche) and phosphatase inhibitor cocktail (Sigma) or virus was released by freeze-thawing and ultrasonic treatment for analysis in viral plaque assay (see above). For immunocytochemistry analysis 5x10^4 LUHMES cells at differentiation day 2 were seeded on 13 mm coverslips that were coated with L-ornithine and fibronectin (see above) and placed into 24-well plates. After four additional days of differentiation the cells were infected with HSV-1 (MOI = 1). […] After the protein concentration of cell lysates and homogenates had been determined using the DC Protein Assay Kit (Bio-Rad), 20 μg of each sample were dissolved in NuPAGE LDS Sample buffer (including 2% β-mercaptoethanol), boiled at 100°C for 5 min and then separated on NuPAGE Novex 4–12% Bis-Tris midi gels (Invitrogen) using NuPAGE MES SDS Running buffer (Invitrogen). […] Signal intensities were calculated using the Image Studio Version 2.1 software (LI-COR Biosciences). […]

[1] = target: T1, D-dopachrome tautomerase (D-DT) (Homo sapiens, UniProt P30046); experiment: Drug resin affinity chromatography (DRAC), D-DT; type: binding; conditions: SH-SY5Y-tau-P301S lysates
T1 construct: Lysates derived from SH-SY5Y-tau-P301S control; endogenous in cells; host or cells: SH-SY5Y-tau-P301S control and MIF-ko cell lysates
Protocol: For drug resin affinity chromatography (DRAC), supernatant of cell lysates or brain extracts were supplemented with 1 mM of ribonucleoside triphosphates (ATP, GTP, CTP, UTP; NEB), 10 mM creatine phosphate (Sigma) and 10 μL/mL of a 5 mg/mL stock solution of creatine kinase (Sigma). The samples were then loaded onto 20 μL of compound-coupled resin that were equilibrated with PBB-buffer (plus supplements). After one hour of incubation at 26°C, the beads were washed with PBB (100x bed volume). Bound proteins were then eluted either with 200 μM PAV-645 (pig brain) or 100 μM free compound (human brain samples; cell lysates) in the same buffer used as competitor solution or for stripping 1% SDS or 8M urea (cell lysates) for 1h. All elutions were kept frozen until further analysis.
Figure S3. PAV-17 4 reduces ta u phosphorylation al s o in the abs enc e of HSV-1-infection in a MIF and dose dependent manner. Rel a ted to Figure 3
(A) SH-SY5Y-tau-P301S cel ls could efficiently been infected with HSV-1. The cel ls we re infected with increasing MOIs (0 .0 3 to 3. 0 ) of HSV-1 an d then lysed af t er 6h , 9h , 16 h or 24 h. […]
(E) Expression of MIF wa s no t mo du late d up on infection with HSV-1. […] The di ag ram di splays the quantification of MIF normalized to GAPDH derived from three in de pe nd en t exper iments (n =3). […]

Row | Structure (SMILES) | viral antigens (HSV-1-gC) in differentiated LUHMES cells (HSV-1) | binding of / interaction with D-DT [1]
1 | CCc1cc(N2CCCC2)cc2[s+]c3cc(N4CCCC4)cc(C)c3nc12.[I-] [PAV-174, 3,7-Di(pyrrolidine-1-yl) 1-ethyl-9-methyl-phenothiazin-5-ium iodide] | reduced | –
2 | [I-].c1cc2nc3ccc(N4CCCC4)cc3[s+]c2cc1N1CCCC1 [PAV-617, 3,7-Di(pyrrolidine-1-yl)phenothiazine-5-ium iodide] | – | no bi nd ing of D-DT
